Results from US20170002041A1, “NOVEL ULTRASHORT HYDROPHOBIC PEPTIDES THAT SELF-ASSEMBLE INTO NANOFIBROUS HYDROGELS AND THEIR USES” (AGENCY FOR SCIENCE, TECHNOLOGY AND RESEARCH, priority 2013, published 2017).
One block for each substance: values may come before it.

Tests used:
Format in all cases: physicochemical
[1] = Formation of aggregates and fibrous structures
[2] = Hydrogel formation / minimum gelation concentration
Text: To prepare the peptide hydrogels, the lyophilized peptide powders were first dissolved in milliQ water and mixed by vortexing for 30 seconds to obtain a homogenous solution. The gelation occurred between minutes to overnight, depending on the peptide concentration. Gelation can be facilitated by sonication or heating.

[3] = Hydrogel rigidity, storage modulus (G′)

Substance: Ac-LD6 (L)
concentration at which formation of aggregates is observed [1]: 100 µg/mL
concentration at which peptide monomers align to form fibrous structures [1]: 1000 µg/mL

hydrogel formation ([2]; at 5 mg/mL): hydrogel
Substance: Ac-ILVAG

storage modulus (G′) ([3]; 20 mg/mL hydrogel in normal saline (NaCl)): 10 kPa
storage modulus (G′) ([3]; 20 mg/mL hydrogel in phosphate buffered saline (PBS)): 40 kPa
storage modulus (G′) ([3]; 20 mg/mL hydrogel in water): 1 kPa
storage modulus (G′) ([3]; 20 mg/mL hydrogel, addition of sodium hydroxide (NaOH)): 80 kPa
minimum gelation concentration (forms hydrogels at) ([2]; in 10 mM NaOH): 10 mg/mL
minimum gelation concentration (forms hydrogels at) ([2]; in PBS): 7.5 mg/mL
minimum gelation concentration (forms hydrogels at) ([2]; in saline): 12 mg/mL
minimum gelation concentration (forms hydrogels at) ([2]; in water): 20 mg/mL
Substance: Ac-LIVAGK-NH2
